Results: US20050096349A1, “Methods to prevent or ameliorate medication-, procedure-or stress-induced cognitive and speech dysfunction and methods to optimize cognitive and speech functioning” (priority 2003, published 2005)

Legend:
[1] = tested on: compulsive shopping (impulse control disorder, not otherwise specified); experiment: Example 1: case report, topiramate for compulsive shopping; assay type: in vivo, patient
From the text: (§1) Patient is a person with compulsive shopping (impulse control disorder, not otherwise specified), type II diabetes, and obesity. They have no other psychiatric disorders including mood or anxiety disorders.

[2] = tested on: word finding difficulty; experiment: Example 1: case report, atomoxetine added for word finding difficulty on topiramate; assay type: in vivo, patient; details: for word finding (patient description): person on topiramate
From the text: as §1

[3] = tested on: feeling "cloudy" and "disoriented"; experiment: Example 3: case report, atomoxetine added for feeling cloudy and disoriented on olanzapine, clonazepam, fiorinal; assay type: in vivo, patient
Protocol: Patient is a person with major depression, panic, generalized anxiety disorder, chronic headaches and fibromyalgia. They are on escitalopram 20 mg po qd, olanzapine 7.5 mg po qhs, clonazepam 0.5 mg po bid, and fiorinal prn. […] Atomoxetine was initiated at 18 mg po qd and increased to 25 mg po qd after 8 days.

[4] = tested on: feeling dull and having difficulty concentrating

| SMILES | weight ([1]; higher dosages of topiramate) | urges and control over shopping behaviors ([1]; person, topiramate dose slowly increased) | cognitive side effect ([1]; topiramate increased to 75 mg po qd) | tolerability of higher topiramate dose ([2]; atomoxetine 40 mg po qd, tolerated for 2 months) | word finding (patient description) ([2]; atomoxetine 25 mg po qd, over the next month) | word finding (patient description) ([2]; atomoxetine 40 mg po qd, over the following month) | duration of stable effect ([3]; atomoxetine 25 mg po qd) [months] | tolerability of other medications in terms of cognitive functioning ([3]; on atomoxetine 25 mg po qd) | concentration, attention, focus (patient description) ([3]; person on escitalopram, olanzapine, clonazepam, fiorinal, atomoxetine 18 mg po qd increased to 25 mg po qd after 8 days) | improvement compared with 25 mg (patient description) ([4]; atomoxetine 40 mg po qd) | side effects ([4]; atomoxetine 40 mg po qd) | concentration and side effects ([4]; atomoxetine alternating 25 mg and 40 mg po qd every other day) | tolerability of effective dose of alpraxolam (2-4 mg/day) ([4]; on atomoxetine alternating 25 mg and 40 mg po qd) | concentration and ability to work (patient description) ([4]; person on escitalopram 20 mg po qd and alprazolam, atomoxetine 25 mg po qd, within a few days) |
| --- | --- | --- | --- | --- | --- | --- | --- | --- | --- | --- | --- | --- | --- | --- |
| CC1(C)O[C@@H]2[C@@H](CO[C@@]3(COS(N)(=O)=O)OC(C)(C)O[C@@H]23)O1 [topiramate] | decreased weight | decreased urges and improved control over their shopping behaviors | word finding difficulty which persisted |  |  |  |  |  |  |  |  |  |  |  |
| CNCC[C@@H](Oc1ccccc1C)c1ccccc1 [Atomoxetine, atomoxetine] |  |  |  | could tolerate a topiramate dose of 100 mg without difficulty | mild improvement in word finding | noticeable improvement in their word finding | 2 | able to tolerate their other medications without difficulty in terms of cognitive functioning | improved concentration, attention, and “focus” | did not have the same improvement as at 25 mg | felt dizzy and “spacy” | improved concentration without significant side effects | without difficulties in concentration/cognitive functioning | improved concentration and improved ability to work |
